Data on 26 compounds can be found in patent US20220324865A1 (Bayer Aktiengesellschaft, priority 2018, published 2022).

Where a name gives a salt, the structure may show the parent alone.

The target of this assay is T1, human EP3 receptor (Homo sapiens, UniProt P43115).
T1 construct: expressed in transfected cells; host or cells: CHO K1 (Chinese Hamster Ovary), stably co-transfected with Galpha16 and mitochondrial clytin
T1 sequence (P43115 1-390): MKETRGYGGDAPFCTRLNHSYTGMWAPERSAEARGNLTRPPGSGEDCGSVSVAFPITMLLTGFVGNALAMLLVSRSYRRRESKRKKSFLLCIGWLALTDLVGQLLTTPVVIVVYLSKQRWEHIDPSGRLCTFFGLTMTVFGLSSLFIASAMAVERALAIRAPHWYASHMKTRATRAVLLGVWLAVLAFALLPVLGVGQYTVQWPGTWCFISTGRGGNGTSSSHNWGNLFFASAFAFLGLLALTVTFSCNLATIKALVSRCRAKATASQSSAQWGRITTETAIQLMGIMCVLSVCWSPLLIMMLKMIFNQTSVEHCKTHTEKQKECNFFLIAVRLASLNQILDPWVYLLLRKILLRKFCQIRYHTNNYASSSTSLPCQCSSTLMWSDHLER
Put plainly: Cellular in vitro assay for determining EP3 receptor activity (human EP3 cell line, sulprostone-stimulated calcium luminescence). The following applies: CHO cells expressing human EP3 and mitochondrial Clytin; antagonist mode, sulprostone at EC50; read-out: EP3 CHO mtCLY ANTAG IC50. The format is cell-based. In outline: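 Antagonist activity was measured as inhibition of the luminescent calcium signal elicited by EC50 sulprostone, following 10 min compound pretreatment. The cell line was recombinant CHO K1 co-expressing human EP3, Gα16 and the photoprotein Clytin, reconstituted with coelenterazine.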
By IC50 is commonly meant the concentration at which inhibition is half-maximal. As to `Cc1c(C(=O)NC2(c3ccc(F)cc3)CN(C)C2)nn2cc(-c3ccc4ccccc4c3)[nH]c(=O)c12` [Example 1-35, N-[3-(4-Fluorophenyl)-1-methylazetidin-3-yl]-3-methyl-6-(naphthalen-2-yl)-4-oxo-4,5-dihydropyrazolo[1,5-a]pyrazine-2-carboxamide hydrochloride], the IC50 was 4.25 nM.

On to `Cc1ccc(-c2cn3nc(C(=O)NC4(c5ccc(F)cc5)CN(C)C4)c(C4CC4)c3c(=O)[nH]2)cc1C` [Example 1-36, 3-Cyclopropyl-6-(3,4-dimethylphenyl)-N-[3-(4-fluorophenyl)-1-methylazetidin-3-yl]-4-oxo-4,5-dihydropyrazolo[1,5-a]pyrazine-2-carboxamide], for which the concentration for half-maximal inhibition (IC50) came to 2.19 nM.

On to `CN1CCOc2cc(-c3cn4nc(C(=O)N[C@H](CCO)c5ccc(F)cc5)cc4c(=O)[nH]3)ccc21` [Example 1-37, N-[(1R)-1-(4-Fluorophenyl)-3-hydroxopyl]-6-(4-methyl-3,4-dihydro-2H-1,4-benzoxazin-7-yl)-4-oxo-4,5-dihydropyrazolo[1,5-a]pyrazine-2-carboxamide], for which the IC50 worked out at 0.95 nM.

For the compound `CN(C)C[C@@H](NC(=O)c1cc2c(=O)[nH]c(-c3ccc4ccccc4c3)cn2n1)c1ccccc1` [Example 1-38, N-[(1S)-2-(Dimethylamino)-1-phenylethyl]-6-(naphthalen-2-yl)-4-oxo-4,5-dihydropyrazolo[1,5-a]-pyrazine-2-carboxamide formic acid salt], the IC50 stood at 4.09 nM.

For `Cc1ccc(-c2cn3nc(C(=O)N[C@H](CCO)c4ccc(F)cc4)cc3c(=O)[nH]2)cc1C` [Example 1-39, 6-(3,4-Dimethylphenyl)-N-[(1R)-1-(4-fluorophenyl)-3-hydroxpropyl]-4-oxo-4,5-dihydropyrazolo-[1,5-a]pyrazine-2-carboxamide], the IC50 came to 0.265 nM.

`O=C(NC(CN1CCOCC1)c1ccc(F)cc1)c1cc2c(=O)[nH]c(-c3ccc4ccccc4c3)cn2n1` (centres unmarked) [Example 1-40, N-[1-(4-Fluorophenyl)-2-morpholinoethyl]-6-(2-naphthyl)-4-oxo-5H-pyrazolo[1,5-a]pyrazine-2-carboxamide]: the IC50 was determined as 8.27 nM.

For the compound `CCN(CCO)CC(NC(=O)c1nn2cc(-c3cnc4cccc(C)c4c3)[nH]c(=O)c2c1C(C)C)c1ccccc1` (centres unmarked) [Example 1-41, N-[2-[Ethyl(2-hydroxyethyl)amino]-1-phenylethyl]-3-isopropyl-6-(5-methyl-3-quinolyl)-4-oxo-5H-pyrazolo[1,5-a]pyrazine-2-carboxamide], the IC50 is 3.7 nM.

For `O=C(NCC1CCCCC1)c1cc2c(=O)[nH]c(-c3ccc4c(c3)OCCO4)cn2n1` [Example 1-43, N-(Cyclohexylmethyl)-6-(2,3-dihydro-1,4-benzodioxin-6-yl)-4-oxo-4,5-dihydropyrazolo[1,5-a]-pyrazine-2-carboxamide], the IC50 turned out to be 1.7 nM.

Consider `O=C(NC(CN1CCCC1)c1ccc(F)cc1)c1cc2c(=O)[nH]c(-c3ccc4ccccc4c3)cn2n1` (centres unmarked) [Example 1-44, N-[1-(4-Fluorophenyl)-2-(pyrrolidin-1-yl)ethyl]-6-(2-naphthyl)-4-oxo-5H-pyrazolo[1,5-a]pyrazine-2-carboxamide], for which the IC50 was 8.97 nM.

Turning to `Cc1c(C(=O)N[C@H](C)c2ccc(F)cc2)nn2cc(-c3ccc4ccccc4c3)[nH]c(=O)c12` [Example 1-45, N-[(1R)-1-(4-Fluorophenyl)ethyl]-3-methyl-6-(naphthalen-2-yl)-4-oxo-4,5-dihydropyrazolo[1,5-a]-pyrazine-2-carboxamide], the IC50 is 2.85 nM.

`CC(C)(C)OC(=O)N1CC(NC(=O)c2cc3c(=O)[nH]c(-c4ccc5ccccc5c4)cn3n2)(c2ccc(F)cc2)C1` [Example 1-47, tert.-Butyl 3-(4-fluorophenyl)-3-({[6-(naphthalen-2-yl)-4-oxo-4,5-dihydropyrazolo[1,5-a]pyrazin-2-yl]carbonyl}amino)azetidine-1-carboxylate]: the IC50 worked out at 4.65 nM.

Consider `CN1CC(NC(=O)c2cc3c(=O)[nH]c(-c4ccc5ccccc5c4)cn3n2)(c2ccc(F)cc2)C1` [Example 1-49, N-[3-(4-Fluorophenyl)-1-methylazetidin-3-yl]-6-(naphthalen-2-yl)-4-oxo-4,5-dihydropyrazolo-[1,5-a]pyrazine-2-carboxamide formic acid salt], for which the IC50 is 7.65 nM.

As for `COC(=O)N1CC(NC(=O)c2cc3c(=O)[nH]c(-c4ccc5ccccc5c4)cn3n2)(c2ccc(F)cc2)C1` [Example 1-50, Methyl 3-(4-fluorophenyl)-3-({[6-(naphthalen-2-yl)-4-oxo-4,5-dihydropyrazolo[1,5-a]pyrazin-2-yl]-carbonyl}amino)azetidine-1-carboxylate], the IC50 is 3.53 nM.

For `COc1ccc([C@@H](C)NC(=O)c2cc3c(=O)[nH]c(-c4ccc5c(c4)COCC5)cn3n2)cn1` [Example 1-51, 6-(3,4-Dihydro-1H-isochromen-7-yl)-N-[(1R)-1-(6-methoxypyridin-3-yl)ethyl]-4-oxo-4,5-dihydropyrazolo[1,5-a]pyrazine-2-carboxamide], the IC50 turned out to be 4 nM.

Regarding `O=C(N[C@H](CCO)c1ccc(F)cc1)c1cc2c(=O)[nH]c(-c3ccc4ccccc4c3)cn2n1` [Example 1-52, N-[(1R)-1-(4-Fluorophenyl)-3-hydroxpropyl]-6-(naphthalen-2-yl)-4-oxo-4,5-dihydropyrazolo-[1,5-a]pyrazine-2-carboxamide], the IC50 turned out to be 6.95 nM.

As for `C[C@@H](NC(=O)c1nn2cc(-c3ccc4ccccc4c3)[nH]c(=O)c2c1C(F)(F)F)c1ccc(F)cc1` [Example 1-53, N-[(1R)-1-(4-Fluorophenyl)ethyl]-6-(naphthalen-2-yl)-4-oxo-3-(trifluoromethyl)-4,5-dihydropyrazolo[1,5-a]pyrazine-2-carboxamide], the IC50 was 0.82 nM.

As to `Cc1ccc(-c2cn3nc(C(=O)N[C@@H](c4ccccc4)C(C)(C)O)cc3c(=O)[nH]2)cc1C` [Example 1-54, 6-(3,4-Dimethylphenyl)-N-[(1S)-2-hydroxy-2-methyl-1-phenylpropyl]-4-oxo-4,5-dihydropyrazolo-[1,5-a]pyrazine-2-carboxamide], the IC50 turned out to be 3.65 nM.

`COCc1c(C(=O)N[C@H](CCO)c2ccc(F)cc2)nn2cc(-c3ccc4ccccc4c3)[nH]c(=O)c12` [Example 1-55, N-[(1R)-1-(4-Fluorophenyl)-3-hydroxopyl]-3-(methoxymethyl)-6-(naphthalen-2-yl)-4-oxo-4,5-dihydropyrazolo[1,5-a]pyrazine-2-carboxamide]: the IC50 is 0.488 nM.

As for `Cc1cccc2ncc(-c3cn4nc(C(=O)N[C@H](CCO)c5ccc(F)cc5)c(C(C)C)c4c(=O)[nH]3)cc12` [Example 1-56, N-[(1R)-1-(4-Fluorophenyl)-3-hydroxypropyl]-6-(5-methylquinolin-3-yl)-4-oxo-3-(propan-2-yl)-4,5-dihydropyrazolo[1,5-a]pyrazine-2-carboxamide], the IC50 worked out at 0.985 nM.

For `COc1ccc(C2(NC(=O)c3cc4c(=O)[nH]c(-c5ccc6ccccc6c5)cn4n3)CN(C(=O)OC(C)(C)C)C2)cc1` [Example 1-57, tert.-Butyl 3-(4-methoxyphenyl)-3-({[6-(naphthalen-2-yl)-4-oxo-4,5-dihydropyrazolo[1,5-a]pyrazin-2-yl]carbonyl}amino)azetidine-1-carboxylate], the IC50 was determined as 4.9 nM.

Consider `Cc1ccc(-c2cn3nc(C(=O)N[C@H](CCO)c4ccc(F)cc4)c(C#N)c3c(=O)[nH]2)cc1C` [Example 1-58, 3-Cyano-6-(3,4-dimethylphenyl)-N-[(1R)-1-(4-fluorophenyl)-3-hydroxpropyl]-4-oxo-4,5-dihydropyrazolo[1,5-a]pyrazine-2-carboxamide], for which the IC50 is 1.5 nM.

`COc1ccc(C2(NC(=O)c3cc4c(=O)[nH]c(-c5ccc6ccccc6c5)cn4n3)CN(C)C2)cc1` [Example 1-59, N-[3-(4-Methoxyphenyl)-1-methylazetidin-3-yl]-6-(naphthalen-2-yl)-4-oxo-4,5-dihydropyrazolo-[1,5-a]pyrazine-2-carboxamide formic acid salt]: the IC50 came out at 5.9 nM.

Take `COC[C@@H](NC(=O)c1nn2cc(-c3ccc4ccccc4c3)[nH]c(=O)c2c1C#N)c1ccccc1` [Example 1-60, 3-Cyano-N-[(1S)-2-methoxy-1-phenylethyl]-6-(naphthalen-2-yl)-4-oxo-4,5-dihydropyrazolo[1,5-a]-pyrazine-2-carboxamide]: the IC50 was 2.7 nM.

For the compound `O=C(NC(CO)c1ccc(F)cc1)c1cc2c(=O)[nH]c(-c3ccc4ccccc4c3)cn2n1` (centres unmarked) [Example 1-61, N-[1-(4-Fluorophenyl)-2-hydroxyethyl]-6-(2-naphthyl)-4-oxo-5H-pyrazolo[1 ,5-a]pyrazine-2-carboxamide], the IC50 was found to be 4.2 nM.

With `O=C(NC(CCO)c1ccc(F)cc1)c1cc2c(=O)[nH]c(-c3ccc4cccnc4c3)cn2n1` (centres unmarked) [Example 1-62, N-[1-(4-Fluorophenyl)-3-hydroxpropyl]-4-oxo-6-(7-quinolyl)-5H-pyrazolo[1,5-a]pyrazine-2-carboxamide], the IC50 amounted to 3.6 nM.

Take `Cc1ccc(-c2cn3nc(C(=O)N[C@H](CCO)c4ccc(F)cc4)c(Cl)c3c(=O)[nH]2)cc1C` [Example 1-63, 3-Chloro-6-(3,4-dimethylphenyl)-N-[(1R)-1-(4-fluorophenyl)-3-hydroxypropyl]-4-oxo-4,5-dihydropyrazolo[1,5-a]pyrazine-2-carboxamide]: the IC50 came out at 0.443 nM.
